Data set [1] in a line: Solubility of amantadine HCl in water. The conditions noted are these: 160 mg, 240 mg and 320 mg of amantadine HCl. In kind it is physicochemical.
For data set [2] the following is noted: cited from earlier work.
For data set [3], the system named is plasma proteins. The conditions noted are these: concentration range of 0.1 to 2.0 μg/mL; cited from earlier work.
For data set [4] the following is noted: cited from earlier work. The source holds these as a separate data set.

As to `NC12CC3CC(CC(C3)C1)C2` [Amantadine, amantadine], the Solubility in water result in data set [1] is reported as “soluble in 250 mL water”. Also, in data set [2] (creatinine clearance less than 40 mL/min/1.73 m^2), the “elimination half-life change in renal insufficiency” value is “increases two to three fold or greater”. Also, the elimination half-life result in data set [2] (patients on chronic maintenance hemodialysis) is “averages eight days”. Also, in data set [3], the “bound to plasma proteins” value is given as 67%. For the same molecule, in data set [4] (after intravenous administration), the volume of distribution is 3 to 8 L/kg. For the same molecule, the “reduction of renal clearance of amantadine” value in data set [4] (coadministration of quinine or quinidine) is recorded as “about 30%”. In data set [4] (in vivo), the “administered dose excreted unchanged in urine” value is reported as “approximately 85%” and the “metabolism as share of the total clearance” value is 5-15%.

These data come from US10500170B2, “Composition and method for treating neurological disease” (Osmotica Kereskedelmi és Szolgáltató Korlátolt Felelõsségû …, priority 2018, dated 2019).
